Test: xn = mol fraction of the nth substance listed
Conditions: for surface tension liquid-gas: Drop volume; for viscosity / mass density: 100 kPa, Liquid; for viscosity: Concentric cylinders viscometry; for mass density: Vibrating tube method

CCCCC1CCCCC1 [butylcyclohexane] + CC(C)CC(C)(C)C
Conditions | mass density [kg/m3] | surface tension liquid-gas [mN/m] | viscosity [mPa·s]
293.15 K, x1 = 0.0999 | 704.07 | – | 0.567
293.15 K, x1 = 0.1008 | – | 19.63 | –
293.15 K, x1 = 0.2 | – | 20.32 | –
293.15 K, x1 = 0.2002 | 715.88 | – | 0.623
293.15 K, x1 = 0.3001 | 727.35 | 21.02 | 0.679
293.15 K, x1 = 0.3996 | 738.44 | – | 0.744
293.15 K, x1 = 0.3999 | – | 21.75 | –
293.15 K, x1 = 0.5004 | – | 22.42 | –
293.15 K, x1 = 0.5005 | 749.38 | – | 0.816
293.15 K, x1 = 0.5999 | – | 23.17 | –
293.15 K, x1 = 0.6003 | 759.9 | – | 0.896
293.15 K, x1 = 0.6994 | 770.07 | – | 0.981
293.15 K, x1 = 0.6995 | – | 23.97 | –
293.15 K, x1 = 0.7998 | – | 24.87 | –
293.15 K, x1 = 0.8 | 780.14 | – | 1.078
293.15 K, x1 = 0.9 | – | 25.85 | –
293.15 K, x1 = 0.9001 | 789.89 | – | 1.184
293.15 K, x1 = 1 | 799.37 | 26.81 | 1.304
298.15 K, x1 = 0.0999 | 700.02 | – | 0.537
298.15 K, x1 = 0.1008 | – | 19 | –
298.15 K, x1 = 0.2 | – | 19.59 | –
298.15 K, x1 = 0.2002 | 711.89 | – | 0.588
298.15 K, x1 = 0.3001 | 723.39 | 20.24 | 0.64
298.15 K, x1 = 0.3996 | 734.52 | – | 0.698
298.15 K, x1 = 0.3999 | – | 20.9 | –
298.15 K, x1 = 0.5004 | – | 21.56 | –
298.15 K, x1 = 0.5005 | 745.49 | – | 0.763
298.15 K, x1 = 0.5999 | – | 22.29 | –
298.15 K, x1 = 0.6003 | 756.05 | – | 0.835
298.15 K, x1 = 0.6994 | 766.27 | – | 0.912
298.15 K, x1 = 0.6995 | – | 23.1 | –
298.15 K, x1 = 0.7998 | – | 23.95 | –
298.15 K, x1 = 0.8 | 776.35 | – | 0.998
298.15 K, x1 = 0.9 | – | 24.93 | –
298.15 K, x1 = 0.9001 | 786.12 | – | 1.093
298.15 K, x1 = 1 | 795.63 | 25.87 | 1.199
303.15 K, x1 = 0.0999 | 695.93 | 18.58 | 0.51
303.15 K, x1 = 0.2002 | 707.85 | 19.11 | 0.556
303.15 K, x1 = 0.3001 | 719.4 | 19.81 | 0.605
303.15 K, x1 = 0.3996 | 730.57 | 20.49 | 0.657
303.15 K, x1 = 0.5005 | 741.58 | 21.39 | 0.717
303.15 K, x1 = 0.6003 | 752.17 | 21.79 | 0.781
303.15 K, x1 = 0.6994 | 762.43 | 22.68 | 0.851
303.15 K, x1 = 0.8 | 772.54 | 23.51 | 0.929
303.15 K, x1 = 0.9001 | 782.34 | 24.53 | 1.014
303.15 K, x1 = 1 | 791.88 | 25.49 | 1.109
308.15 K, x1 = 0.0999 | 691.83 | – | 0.486
308.15 K, x1 = 0.1008 | – | 18.07 | –
308.15 K, x1 = 0.2 | – | 18.59 | –
308.15 K, x1 = 0.2002 | 703.8 | – | 0.528
308.15 K, x1 = 0.3001 | 715.4 | 19.17 | 0.573
308.15 K, x1 = 0.3996 | 726.61 | – | 0.621
308.15 K, x1 = 0.3999 | – | 19.76 | –
308.15 K, x1 = 0.5004 | – | 20.41 | –
308.15 K, x1 = 0.5005 | 737.66 | – | 0.675
308.15 K, x1 = 0.5999 | – | 21.12 | –
308.15 K, x1 = 0.6003 | 748.29 | – | 0.734
308.15 K, x1 = 0.6994 | 758.58 | – | 0.797
308.15 K, x1 = 0.6995 | – | 21.94 | –
308.15 K, x1 = 0.7998 | – | 22.79 | –
308.15 K, x1 = 0.8 | 768.72 | – | 0.868
308.15 K, x1 = 0.9 | – | 23.73 | –
308.15 K, x1 = 0.9001 | 778.55 | – | 0.945
308.15 K, x1 = 1 | 788.12 | 24.73 | 1.031
313.15 K, x1 = 0.0999 | 687.7 | – | 0.464
313.15 K, x1 = 0.2002 | 699.73 | – | 0.502
313.15 K, x1 = 0.3001 | 711.37 | – | 0.544
313.15 K, x1 = 0.3996 | 722.64 | – | 0.588
313.15 K, x1 = 0.5005 | 733.72 | – | 0.638
313.15 K, x1 = 0.6003 | 744.39 | – | 0.691
313.15 K, x1 = 0.6994 | 754.72 | – | 0.749
313.15 K, x1 = 0.8 | 764.89 | – | 0.814
313.15 K, x1 = 0.9001 | 774.76 | – | 0.883
313.15 K, x1 = 1 | 784.35 | – | 0.961
318.15 K, x1 = 0.0999 | 683.64 | – | 0.446
318.15 K, x1 = 0.2002 | 695.56 | – | 0.482
318.15 K, x1 = 0.3001 | 707.24 | – | 0.519
318.15 K, x1 = 0.3996 | 718.6 | – | 0.561
318.15 K, x1 = 0.5005 | 729.73 | – | 0.607
318.15 K, x1 = 0.6003 | 740.43 | – | 0.654
318.15 K, x1 = 0.6994 | 750.82 | – | 0.708
318.15 K, x1 = 0.8 | 760.98 | – | 0.765
318.15 K, x1 = 0.9001 | 770.84 | – | 0.829
318.15 K, x1 = 1 | 780.49 | – | 0.9
323.15 K, x1 = 0.0999 | 679.45 | – | 0.427
323.15 K, x1 = 0.2002 | 691.42 | – | 0.46
323.15 K, x1 = 0.3001 | 703.16 | – | 0.496
323.15 K, x1 = 0.3996 | 714.56 | – | 0.534
323.15 K, x1 = 0.5005 | 725.73 | – | 0.575
323.15 K, x1 = 0.6003 | 736.49 | – | 0.62
323.15 K, x1 = 0.6994 | 746.95 | – | 0.668
323.15 K, x1 = 0.8 | 757.16 | – | 0.721
323.15 K, x1 = 0.9001 | 767.06 | – | 0.779
323.15 K, x1 = 1 | 776.7 | – | 0.844
333.15 K, x1 = 0.0999 | 670.99 | – | 0.396
333.15 K, x1 = 0.2002 | 683.12 | – | 0.424
333.15 K, x1 = 0.3001 | 694.98 | – | 0.454
333.15 K, x1 = 0.3996 | 706.46 | – | 0.487
333.15 K, x1 = 0.5005 | 717.7 | – | 0.522
333.15 K, x1 = 0.6003 | 728.53 | – | 0.56
333.15 K, x1 = 0.6994 | 739.06 | – | 0.601
333.15 K, x1 = 0.8 | 749.37 | – | 0.646
333.15 K, x1 = 0.9001 | 759.38 | – | 0.695
333.15 K, x1 = 1 | 769.09 | – | 0.749
343.15 K, x1 = 0.0999 | 662.4 | – | 0.369
343.15 K, x1 = 0.2002 | 674.66 | – | 0.394
343.15 K, x1 = 0.3001 | 686.64 | – | 0.42
343.15 K, x1 = 0.3996 | 698.25 | – | 0.448
343.15 K, x1 = 0.5005 | 709.63 | – | 0.48
343.15 K, x1 = 0.6003 | 720.57 | – | 0.51
343.15 K, x1 = 0.6994 | 731.21 | – | 0.545
343.15 K, x1 = 0.8 | 741.57 | – | 0.584
343.15 K, x1 = 0.9001 | 751.62 | – | 0.626
343.15 K, x1 = 1 | 761.43 | – | 0.671

Source: the NIST ThermoML archive (doi:10.1021/acs.jced.5b00105)
